Where two headings read alike, the source gives them in different places.
What was measured:
LlFpg = molecular target: T1, LlFpg (Lactococcus lactis subsp. cremoris, UniProt P42371); experiment: LlFpg 8-oxoG-DNA glycosylase/AP lyase activity assay (Urea-PAGE radioassay); format: biochemical; conditions: for IC50: catalytic activity at 37 °C, compound stock (redox mixture) in DMSO, 20 nM 8-oxoG:C 24-mer, 2 nM LlFpg
T1 construct: made in house; host or cells: E. coli BH540 (fpg defective)
Description: Figure 1 Effect of 2-thioxanthine (2TX)-derivatives on Fpg activity. A total of 20 nM of 5′-[^32P]-8-oxoG-containing 24-bp DNA duplex (labeled on the damaged strand) was incubated with 2 nM of LlFpg alone (dimethyl sulfoxide (DMSO) control) or with the indicated 2TX and 2TX-derivatives (TXn) concentrations, as described in the “Materials and Methods” section. (a) Screening of TXn for Fpg inhibition. Averages and standard deviations were obtained from at least three independent experiments. Mono- and di-thiolated compounds are highlighted in red and blue, respectively. (b) Dose-response curves for best inhibitors. Each data point represents the mean value obtained from at least three independent measurements.
(§1) Fpg, hNeil1 and mvNei1 are bifunctional DNA glycosylases associated with concerted DNA glycosylase activity (cleavage of the N-glycosidic bond between the base lesion and the C1′ of the deoxyribose) and AP lyase activity that comprises the successive cleavage of the phosphodiester bonds at the 3′ and 5′ of the resulting abasic (AP) site, respectively (β, δ-elimination). Thus, AP sites that result from the excision of the damaged base are quantitatively converted into one nucleoside gap by these enzymes. The DNA glycosylase/AP lyase activity of each enzyme was measured by incubating 20 nM of 24-mer DNA duplexes ([OG:C] and [DHU:G] for Fpg and hNeil1/mvNei1, respectively) 5′-labeling on the damaged strand (see above) with 2 nM of Fpg, or mvNei1 for 15 min or, with 20 nM of hNeil1 for 30 min at 37 °C in 10 mM Tris-HCl, pH 7.6, 150 mM NaCl, 1 mM EDTA, 0.1 mg/mL BSA and 8% DMSO. The reaction was stopped by the addition of 1 volume of formamide loading buffer (96% formamide, 20 mM Tris/HCl pH 8.0 and 2 mM Na2EDTA), heated at 80 °C for 2 min and then analyzed by 20% Urea-PAGE, as previously described. […] Under these conditions, only 50% of the substrate is converted to the cleavage product (limiting enzyme concentration conditions). For an initial evaluation of the inhibitory effect, 40 µM of 2TX/TXn was used. The thio-compound was added to the reaction mixture before the final addition of the enzyme (competition condition). For the best identified inhibitors, a dose-response curve was generated and IC50^A determined (Figure 1 and Table 1).

hNeil1 = hNeil1 (Homo sapiens, UniProt Q96FI4); experiment: hNeil1 DNA glycosylase/AP lyase activity assay on DHU:G 24-mer duplex; format: biochemical; parameters: Overproduction was performed as described above for full length hNeil1; 6His (C); made in house; host or cells: E. coli Rosetta2 (DE3); conditions: for effect on hNeil1 catalytic activity: 0.2 mM compound
Chain of hNeil1 (Q96FI4 whole entry): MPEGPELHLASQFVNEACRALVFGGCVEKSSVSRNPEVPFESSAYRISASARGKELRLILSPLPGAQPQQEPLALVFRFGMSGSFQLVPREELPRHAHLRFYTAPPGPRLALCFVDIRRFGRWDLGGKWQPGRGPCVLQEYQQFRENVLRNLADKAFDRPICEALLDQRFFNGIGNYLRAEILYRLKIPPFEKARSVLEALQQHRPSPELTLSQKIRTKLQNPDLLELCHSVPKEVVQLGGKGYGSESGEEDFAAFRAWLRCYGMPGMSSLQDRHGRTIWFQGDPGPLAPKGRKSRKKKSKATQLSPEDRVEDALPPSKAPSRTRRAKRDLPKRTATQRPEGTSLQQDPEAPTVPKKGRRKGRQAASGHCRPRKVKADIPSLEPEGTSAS
Description: Figure 4 Comparative analysis of the effect of 2TX and TXn on Fpg/Nei DNA glycosylases. Enzyme activities were measured as described in the Figure 1 legend using […] of a 5′-[^32P]-24-mer DNA duplex containing either an 8-oxoG opposite C for LlFpg or a […] (DHU) opposite G for hNeil1 and mvNei1. The DNA probe was incubated with the indicated protein concentration and 0.2 mM TXn compounds in the presence or absence of 1 mM dithiothreitol (DTT) and TCEP (a representative experiment is illustrated by the upper histograms). The DNA probe for EMSA was 0.1 nM of 5′-[^32P]-[…] DNA duplex containing THF with LlFpg and mvNei1 (bottom panels: gel autoradiography) with the indicated conditions and as described in ‘Materials and Methods’.
as §1

[1] = read-out: IC50app^A (Fpg/Nei enzyme catalysis) LlFpg
[2] = catalytic activity at 37 °C, compound stock in DMSO, DHU:G 24-mer, read-out: IC50app^A (Fpg/Nei enzyme catalysis) hNEIL1
[3] = IC50app^A (Fpg/Nei enzyme catalysis) LlFpg

T1 sequence (P42371 2-273): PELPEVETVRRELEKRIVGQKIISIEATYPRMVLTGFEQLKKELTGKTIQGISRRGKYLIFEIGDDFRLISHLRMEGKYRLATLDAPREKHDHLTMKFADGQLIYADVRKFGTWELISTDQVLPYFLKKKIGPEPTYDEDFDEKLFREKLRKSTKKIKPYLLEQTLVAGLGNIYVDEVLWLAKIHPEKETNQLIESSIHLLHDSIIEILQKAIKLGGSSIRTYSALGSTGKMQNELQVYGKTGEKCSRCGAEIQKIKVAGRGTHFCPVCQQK

SMILES	IC50 (LlFpg; [1])	effect on hNeil1 catalytic activity (hNeil1; Figure 4)	IC50 (hNeil1; [2])	effectiveness on Fpg relative to 2TX (LlFpg; from IC50app^A)	IC50 (hNeil1)	IC50 (LlFpg; [3])	inhibition of hNeil1 DNA binding and catalytic activities in the presence of TCEP (hNeil1; 1 mM TCEP (DTT to a lesser extent), Figure 4)
O=c1[nH]c(=S)[nH]c2nc[nH]c12 [Compound 2TX, 2-thioxanthine, reference compound]	48 ± 4 µM	did not significantly affect	> 500 µM				
FC(F)(F)c1nc(S)c2nc[nH]c2n1 [TX13, 2-trifluoromethyl-6-thiopurine]	7.5 ± 1 µM			seven times more effective than 2TX	> 250 µM		
O=c1[nH]c2[nH]c(=S)[nH]c(=O)c2[nH]1 [TX14, 2-thio-6,8-dioxopurine]			> 500 µM			28 ± 7 µM	
O=c1[nH]c(=S)[nH]c2[nH]c(=S)[nH]c12 [TX19]	15 ± 1 µM	apparent inhibitory effects	19 ± 1 µM				suppressed
Nc1ncnc2[nH]c(S)nc12 [TX27]			160 ± 16 µM			20 ± 2 µM	

From PMC7139703, “Thiopurine Derivative-Induced Fpg/Nei DNA Glycosylase Inhibition: Structural, Dynamic and Functional Insights” (International Journal of Molecular Sciences, 2020)
